The values that follow are results of earlier work, collected in patent US7932258B2, “Use of a partially neutralized, anionic (meth) acrylate copolymer as a coating for the production of a medicament pharmaceutical form releasing active substance at reduced pH values” (Evonik Roehm GmbH, priority 2005, dated 2011).

Structures are written as SMILES.

For the data set the following is noted: pH 4.0.

Consider `CC(=O)Oc1ccccc1C(=O)O` [Acetylsalicylic acid], for which the “Solubility and stability of the active substance” value is “adequately soluble and stable”.
